Paper PMC9872666, “Pharmacological Profiling of a Brugia malayi Muscarinic Acetylcholine Receptor as a Putative Antiparasitic Target” (Antimicrobial Agents and Chemotherapy, 2023)

Target: T1, Bma-GAR-3 (Brugia malayi, UniProt A0A4E9FL79)
T1 construct: full-length synthesized ORF; transgenic C. elegans gar-3(gk305) knockout, expressed in ASH neuron (sra-6p), body wall muscle (myo-3p) or pharynx (myo-2p)
Assay: ring aversion assay, transgenic C. elegans expressing receptor in ASH neuron
Settings: agonist; 100 mM in plate ring; whole transgenic worms, gar-3(gk305) knockout background; N2 and knockout as controls; also pharyngeal pumping and dye-uptake assays

T1 sequence (A0A4E9FL79 entry or part of it): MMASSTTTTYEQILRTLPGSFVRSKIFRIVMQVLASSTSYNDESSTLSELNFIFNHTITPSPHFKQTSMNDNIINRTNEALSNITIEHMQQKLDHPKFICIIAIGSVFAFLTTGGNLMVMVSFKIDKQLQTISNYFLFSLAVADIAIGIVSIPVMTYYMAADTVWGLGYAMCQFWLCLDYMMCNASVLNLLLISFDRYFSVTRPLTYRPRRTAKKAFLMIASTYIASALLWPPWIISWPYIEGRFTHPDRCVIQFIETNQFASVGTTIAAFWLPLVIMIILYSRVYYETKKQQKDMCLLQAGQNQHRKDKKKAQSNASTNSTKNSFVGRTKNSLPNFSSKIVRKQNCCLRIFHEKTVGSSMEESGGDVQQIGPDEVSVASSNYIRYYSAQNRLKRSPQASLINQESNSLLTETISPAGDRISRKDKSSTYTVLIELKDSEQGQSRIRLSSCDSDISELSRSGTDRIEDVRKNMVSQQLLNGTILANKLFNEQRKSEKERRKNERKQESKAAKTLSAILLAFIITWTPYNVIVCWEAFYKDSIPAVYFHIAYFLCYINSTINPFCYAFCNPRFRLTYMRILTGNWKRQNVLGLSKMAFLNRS

In the case of `C[N+](C)(C)CC#CCN1CCCC1=O` [OXO, oxotremorine M], the “ring aversion assay, transgenic C. elegans expressing receptor in ASH neuron” value is reported as “this receptor is activated by acetylcholine and oxotremorine M”.
